Consider 78 compounds from PubChem BioAssay AID1645861 (Buhrlage Lab, Dana-Farber Cancer Institute and Novartis …, 2021).

This assay deals with Ubiquitin carboxyl-terminal hydrolase 7 (Homo sapiens) (UniProt Q93009). Nature of the assay: Biochemical concentration-response for ubiquitin-specific peptidase 7 DUB inhibitors, verifying primary hits (AID 1645861). To be noted: purified USP7, Ub-rhodamine cleavage fluorescence, 60 min.

Activity calls are given as the source filed them.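 The calls were made as follows: active = compounds whose peak USP7 inhibition across the dose series reached 30% or more; inactive = the rest.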 A value given as a limit tells only on which side of the number the result lay.

Sequence of Ubiquitin carboxyl-terminal hydrolase 7 (Homo sapiens) (Q93009 whole entry, looked up): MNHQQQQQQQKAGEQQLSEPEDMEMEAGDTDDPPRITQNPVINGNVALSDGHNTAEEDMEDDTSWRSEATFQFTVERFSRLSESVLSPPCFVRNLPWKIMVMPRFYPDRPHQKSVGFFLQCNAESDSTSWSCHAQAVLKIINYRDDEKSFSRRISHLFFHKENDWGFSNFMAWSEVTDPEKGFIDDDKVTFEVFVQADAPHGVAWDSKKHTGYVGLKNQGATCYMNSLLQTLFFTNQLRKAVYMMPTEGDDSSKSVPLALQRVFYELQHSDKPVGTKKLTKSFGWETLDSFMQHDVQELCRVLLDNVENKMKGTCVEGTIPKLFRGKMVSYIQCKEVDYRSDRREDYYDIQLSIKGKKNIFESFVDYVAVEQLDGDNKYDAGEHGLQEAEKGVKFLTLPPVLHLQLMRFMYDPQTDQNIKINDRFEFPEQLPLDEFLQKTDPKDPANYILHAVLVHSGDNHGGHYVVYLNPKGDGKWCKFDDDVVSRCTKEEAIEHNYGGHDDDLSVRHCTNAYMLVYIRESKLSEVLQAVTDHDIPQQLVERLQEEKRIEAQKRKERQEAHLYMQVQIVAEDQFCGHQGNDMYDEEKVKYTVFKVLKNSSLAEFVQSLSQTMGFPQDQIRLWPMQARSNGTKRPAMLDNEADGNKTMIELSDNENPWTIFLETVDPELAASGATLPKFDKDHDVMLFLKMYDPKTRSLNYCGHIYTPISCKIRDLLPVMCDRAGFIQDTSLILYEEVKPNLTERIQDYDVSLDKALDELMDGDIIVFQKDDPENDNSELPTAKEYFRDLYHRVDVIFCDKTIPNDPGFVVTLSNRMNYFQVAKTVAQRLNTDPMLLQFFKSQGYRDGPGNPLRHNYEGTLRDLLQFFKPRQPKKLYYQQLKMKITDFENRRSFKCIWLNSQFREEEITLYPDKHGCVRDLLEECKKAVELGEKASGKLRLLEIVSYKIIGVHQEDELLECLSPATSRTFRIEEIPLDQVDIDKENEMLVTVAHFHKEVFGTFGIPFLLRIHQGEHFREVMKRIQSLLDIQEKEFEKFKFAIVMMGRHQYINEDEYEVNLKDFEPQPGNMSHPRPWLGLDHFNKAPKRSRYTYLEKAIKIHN

In general, IC50 refers to the concentration needed to halve the response being measured. In the case of `COc1ccc(Cl)cc1NC(=O)Cn1c(=O)n(CCCCC(=O)NCCc2ccccc2)c(=O)c2ccccc21`, the IC50 was > 50 µM (inactive).
With `COc1cc2c(c(OCC(=O)Nc3ccc4c(c3)OCCO4)c1)C(=O)O[C@@H](C)CCCC(=O)CCCCC2`, the IC50 was > 50 µM (inactive).
Turning to `COc1ccccc1CNC(=O)CCCCn1c(=O)c2ccccc2n(Cc2ccc(C)cc2)c1=O`, the IC50 was > 50 µM (inactive).
As to `CC(C)c1ccc(NC(=O)c2cc(-c3cccnc3)n[nH]2)cc1`, the IC50 was > 50 µM (inactive).
`Cc1ccnc(NS(=O)(=O)c2ccc(NC(=O)c3ccc(S(=O)(=O)N(C)Cc4ccccc4)cc3)cc2)n1`: the IC50 is > 50 µM (inactive).
Turning to `CCCCCCCCCc1cc(OC(=O)c2c(CCCCCCCCC)cc(O)cc2O[C@@H]2O[C@H](CO)[C@@H](O)[C@H](O)[C@H]2O)cc(O)c1C(=O)O`, the IC50 was 5.09 µM.
As to `C/C=C/C=C/[C@@H]1Cc2cc(O)cc(O)c2O1`, the IC50 is > 50 µM (inactive).
As to `O=C(NCC1(c2ccccc2)CCC1)c1nc2n(n1)-c1ccccc1S(=O)(=O)N2`, the IC50 is > 50 µM (inactive).
In the case of `CCc1ccc(NC(=O)C(C)OC(=O)/C=C/c2ccc(S(=O)(=O)Nc3cccc(S(N)(=O)=O)c3)cc2)cc1` (stereo not drawn) it was > 50 µM (inactive); in that of `COc1cccc(CNC(=O)c2nnn(CC(=O)Nc3cc(C)ccc3C)c2N)c1`, > 50 µM (inactive).
For `Cc1ccc(NC(=O)CSc2nnc(-c3n[nH]c4c3CCC4)n2N)cc1C`, the IC50 was > 50 µM (inactive).
Then `COc1ccc(CCNC(=O)Cn2c(=O)c3sccc3n(Cc3cccc([N+](=O)[O-])c3)c2=O)cc1OC`, with > 50 µM (inactive).
Regarding `O=C(CSc1nnc2c3ccccc3nc(-c3ccco3)n12)N1CCCc2ccccc21`, the IC50 is > 50 µM (inactive).
Then `CC(NC(=O)c1ccccc1)c1nc2ccccc2n1CC(=O)Nc1ccc(C#N)cc1` (stereo not drawn), with > 50 µM (inactive).
On to `CCOC(=O)C1CCN(Cc2cc(=O)oc3cc(O)c(O)cc23)CC1`, for which the IC50 was 6.18 µM.
On to `Cc1cccc(NC(=O)Nc2nnc(CC(=O)NCc3ccccc3)s2)c1`, for which the IC50 is > 50 µM (inactive).
Take `O=C(Nc1nccs1)C1c2ccccc2C(=O)N(Cc2ccccc2)C12CCCC2` (stereo not drawn): the IC50 was > 50 µM (inactive).
With `O=C(NCCc1ccccc1)c1ccc2c(=O)n(Cc3ccco3)c(=O)n(Cc3cccc([N+](=O)[O-])c3)c2c1`, the IC50 was 13.4 µM.
For `CC1=CC(=O)C(C2=C(O)C(=O)C(C)=CC2=O)=C(O)C1=O`, the IC50 is > 50 µM (inactive).
`CN(C)[C@@H]1C(=O)C(C(N)=O)=C(O)[C@@]2(O)C(=O)C3=C(O)c4c(O)cccc4[C@@](C)(O)C3[C@H](O)[C@@H]12` (stereo partly drawn): the concentration for half-maximal inhibition (IC50) is 6.37 µM.
With `O=C(O)c1cccc(NC(=O)C(Sc2cccc(NC(=O)c3cccc(Cl)c3)c2)c2ccccc2)c1` (stereo not drawn), the 50% inhibitory concentration (IC50) was 45.8 µM.
Regarding `COc1cn(-c2ccc(F)cc2)nc1C(=O)Nc1ccc(Cl)cc1Cl`, the IC50 was > 50 µM (inactive).
As for `O=C(Nc1ccccc1Cc1ccccc1)c1nc2n(n1)-c1ccccc1S(=O)(=O)N2`, the IC50 is > 50 µM (inactive).
Turning to `CCC(=O)N1c2ccccc2NC2=C(C(=O)CC(c3ccccc3OCc3ccccc3)C2)C1c1ccccc1` (stereo not drawn), the IC50 is > 50 µM (inactive).
Consider `CC(=O)N1CCc2cc(S(=O)(=O)NC(Cc3ccccc3)C(=O)Nc3cccc(Cl)c3C)ccc21` (stereo not drawn), for which the IC50 is > 50 µM (inactive).
Consider `Cc1nc(N2CCN(c3ccc(Cl)cc3)CC2)c2oc3ccccc3c2n1`, for which the IC50 was > 50 µM (inactive).
On to `O=C(Cn1c(=O)n(CCC(=O)N2CCc3ccccc3C2)c(=O)c2ccccc21)NCc1ccccc1Cl`, for which the IC50 is > 50 µM (inactive).
On to `O=C(CCCc1nnc2c(=O)n(-c3cccc(F)c3)ccn12)NCc1ccc(F)cc1`, for which the IC50 is > 50 µM (inactive).
Consider `Cc1nc(-c2ccc(Cl)cc2)oc1C(=O)Nc1ccc(Cl)cc1`, for which the IC50 is > 50 µM (inactive).
Then `Cc1ccc(Cl)cc1NC(=O)Cn1c(=O)n(CCC(=O)NCc2ccco2)c(=O)c2ccccc21`, with > 50 µM (inactive).
As for `COc1ccc(CC(=O)Nc2ccccc2-c2nc3ccccc3[nH]2)cc1OC`, the IC50 was > 50 µM (inactive).
With `Cc1cccc(NC(=O)Nc2ccccc2OCc2cc(=O)n3cccc(C)c3n2)c1`, the IC50 was > 50 µM (inactive).
Consider `O=C(Cn1c(=O)n(CC2CCC(C(=O)NCCc3ccccc3)CC2)c(=O)c2ccccc21)NCc1ccco1` (stereo not drawn), for which the IC50 is > 50 µM (inactive).
In the case of `O=C(Nc1cccc([N+](=O)[O-])c1)Nc1ccc2snnc2c1` it was 17.7 µM; in that of `O=C(Nc1cccc(F)c1)Nc1cccc(-c2nnc(-c3ccccc3)o2)c1`, > 50 µM (inactive).
In the case of `COc1cc(-c2ccccc2)c(O)c(O)c1-c1ccccc1`, the 50% inhibitory concentration (IC50) was 22.1 µM.
As for `N#Cc1cccc(NC(=O)COC(=O)c2n[nH]c3ccccc23)c1`, the IC50 was > 50 µM (inactive).
For `CC1OC2CC(O)C1(O)C1=C2C(O)=C(C(N)=O)C(=N)C1=O` (stereo not drawn), the IC50 is > 50 µM (inactive).
In the case of `O=c1c2ccccc2oc2nc(-c3cccs3)n(-c3ccccc3)c(=O)c12`, the IC50 is > 50 µM (inactive).
Turning to `Cc1ccc(NC(=O)Cn2c(=O)n(CC(=O)NCCc3ccccc3)c(=O)c3sccc32)cc1C`, the IC50 was > 50 µM (inactive).
Consider `COc1cc(OC)c(NC(=O)c2cc(-c3ccccn3)n[nH]2)cc1Cl`, for which the IC50 was > 50 µM (inactive).
Consider `COc1ccc(Cl)cc1NC(=O)c1nc(-c2cn(-c3ccccc3)nn2)no1`, for which the IC50 was > 50 µM (inactive).
In the case of `COC1=C(C2=C(OC)C(=O)c3cc4c(c(O)c3C2=O)C(=O)OC(C)C4)C(=O)c2c(cc3c(c2O)C(=O)OC(C)C3)C1=O` (stereo not drawn) it was 44.7 µM; in that of `FC(F)(F)c1ccc(Nc2nnnc3ccccc23)cc1`, 20.5 µM.
As to `Nc1c(C(=O)NCc2ccc3c(c2)OCO3)nnn1Cc1ccc(Br)cc1F`, the IC50 was > 50 µM (inactive).
Turning to `O=C(Cn1c(=O)n(Cc2ccc3c(c2)OCO3)c(=O)c2ccccc21)NCc1ccco1`, the IC50 was > 50 µM (inactive).
For the compound `O=c1c2[nH]c3ccccc3c2ncn1Cc1ccncc1`, the IC50 is > 50 µM (inactive).
Regarding `Cc1cc(NS(=O)(=O)c2ccc(NC(=O)c3ccc(N4CCCC4)c([N+](=O)[O-])c3)cc2)no1`, the IC50 is > 50 µM (inactive).
As for `COc1ccc(NC(=O)Cn2c(=O)n(-c3ccc(CC(=O)NCc4ccco4)cc3)c(=O)c3ccccc32)cc1Cl`, the IC50 is > 50 µM (inactive).
As to `Cc1cc(OCC(=O)Nc2ccccc2C(=O)Nc2ccccc2)ccc1Cl`, the IC50 was > 50 µM (inactive).
Regarding `Cc1noc(-c2cc(=O)n(CC(=O)Nc3ccccc3Cl)c3ccccc23)n1`, the IC50 is > 50 µM (inactive).
`COc1ccccc1NC(=O)c1nc(-c2cn(-c3cccc(F)c3)nn2)no1`: the IC50 is > 50 µM (inactive).
As to `Cn1c(=O)c(C(=O)Nc2ccc(Br)cc2)nc2ccccc21`, the IC50 is > 50 µM (inactive).
Then `O=C(Nc1ccc(F)cc1)Nc1ccccc1OCc1cc(=O)n2ccccc2n1`, with > 50 µM (inactive); and `COc1ccc(Sc2nc3ccccc3n3cnnc23)cc1`, with > 50 µM (inactive); and `COc1ccc(-c2c(NC(=O)C3COc4ccccc4O3)n[nH]c2C)cc1OC` (stereo not drawn), with > 50 µM (inactive).
Then `CC(=O)NS(=O)(=O)c1ccc(NC(=O)/C=C/c2cn(-c3ccccc3)nc2-c2ccccc2)cc1`, with 36.4 µM.
`O=C(NCCc1nc2ccccc2n1CCOc1ccccc1Cl)C1CCCCC1`: the IC50 was > 50 µM (inactive).
For the compound `Cc1ccc(CNC(=O)CCCn2c(=O)c3sccc3n(CC(=O)OCc3ccccc3)c2=O)cc1`, the IC50 was > 50 µM (inactive).
For the compound `O=C(c1ccccn1)N1CCC2(CC1)CC1(CO2)Nc2ccccc2-n2cccc21` (stereo not drawn), the IC50 is > 50 µM (inactive).
In the case of `COc1cccc(C(=O)Nc2ccc(SC(C)C(=O)Nc3ccc(C(N)=O)cc3)cc2)c1` (stereo not drawn), the IC50 was > 50 µM (inactive).
In the case of `CC(C)=CCCC1(C)C=Cc2c(O)c3c(c(CC=C(C)C)c2O1)OC12C(=CC4CC1C(C)(C)OC2(C/C=C(/C)C(=O)O)C4=O)C3=O` (stereo not drawn), the IC50 is 17.4 µM.
In the case of `O=c1cc(-c2ccc(O)c(O)c2)oc2cc(O)cc(O)c12` it was 2.81 µM.
As to `COc1ccc(NC(=O)Cn2c(=O)n(Cc3ccco3)c(=O)c3ccc(C(=O)NC4CCCC4)cc32)cc1`, the IC50 is > 50 µM (inactive).
As for `O=C(CCCn1c(=O)c2sccc2n(CC(=O)NCCC2=CCCCC2)c1=O)NCc1ccc2c(c1)OCO2`, the IC50 is > 50 µM (inactive).
Regarding `O=C(NC1(O)C(=O)c2ccccc2C1=O)c1cccc2c1-c1ccccc1C2=O`, the IC50 is > 50 µM (inactive).
`O=C(O)C1C(C(=O)Nc2ccccc2)C2(c3ccccc3)C(=O)C1(c1ccccc1)C(c1ccccc1)=C2c1ccccc1` (stereo not drawn): the half-inhibitory concentration (IC50) is 15.8 µM.
`O=C(c1ccco1)N1CCC2(CC1)CC1(CO2)Nc2ccccc2-n2cccc21` (stereo not drawn): the IC50 is > 50 µM (inactive).
For the compound `COc1ccc(NC(=O)c2cc(-c3cccnc3)n[nH]2)cc1Cl`, the IC50 was > 50 µM (inactive).
Consider `O=C(CSc1ccc(-c2cccc([N+](=O)[O-])c2)nn1)Nc1cccc(F)c1`, for which the IC50 is > 50 µM (inactive).
Regarding `CCOC(=O)c1cc2c(ccn2-c2ccc(F)cc2)n1CC(=O)Nc1ccc2c(c1)OCCO2`, the IC50 is > 50 µM (inactive).
Regarding `Cc1ccc(N2CC(c3nc4ccccc4n3CCOc3cccc(C)c3)CC2=O)cc1` (stereo not drawn), the IC50 was 42.7 µM.
Then `Cc1nn(-c2ccccc2)c2c1N=C1C(Cl)=CC(Cl)=CN1C21C(=O)Nc2ccccc21` (stereo not drawn), with 17.4 µM.
With `C[C@H](NC(=O)Cc1ccccc1F)c1nc2cc(-c3ccccc3F)ncn2n1`, the IC50 is > 50 µM (inactive).
Take `CCCCCCCc1cc(OC(=O)c2c(CCCCCCC)cc(O)cc2O[C@@H]2O[C@H](CO)[C@H](O)[C@H](O)[C@H]2O)cc(O)c1C(=O)O`: the IC50 was 21.4 µM.
Then `COc1cc(C)cc2c1C(=O)c1c(cc(O)c(Cl)c1O)C2=O`, with 12.9 µM; and `Cc1ccc(Nc2nc(NCC(=O)Nc3cc(C)ccc3C)nc(Nc3ccc(C)cc3)n2)cc1`, with > 50 µM (inactive); and `Cc1cc(C)cc(NC(=O)Nc2ccccc2OCc2cc(=O)n3c(ncn3C(C)C)n2)c1`, with > 50 µM (inactive).
